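The compound was tested at five concentrations on cells cultured in 96-well plates, with a 48-hour exposure period. Abbreviation: GI50, concentration required for 50% inhibition of growth.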 The source made the active and inactive calls. No stated cut-off is given here; in the data, active = GI50 up to about 1.1 µM and inactive = higher.
Assays:
Test in all cases: NCI-60 cell line screen, 48 h
IGROV-1 = test system: IGROV-1
T47D = test system: T47D
HT-29 = test system: HT-29
A549 = test system: A549
HOP-92 = test system: HOP-92
Malme-3M = test system: Malme-3M
Hs-578T = test system: Hs-578T
786-0 = test system: 786-0
K562 = test system: K562
SN12C = test system: SN12C
UACC-257 = test system: UACC-257
NCI-H460 = test system: NCI-H460
SF-295 = test system: SF-295
HCT-15 = test system: HCT-15
NCI-H226 = test system: NCI-H226
NCI-H522 = test system: NCI-H522
HL-60 = test system: HL-60
OVCAR-3 = test system: OVCAR-3
SK-MEL-5 = test system: SK-MEL-5
BT-549 = test system: BT-549
SR = test system: SR
SW-620 = test system: SW-620
ACHN = test system: ACHN
MDA-MB-231 = test system: MDA-MB-231
EKVX = test system: EKVX
SNB-19 = test system: SNB-19
MCF7 = test system: MCF7
UO-31 = test system: UO-31
COLO 205 = test system: COLO 205
CAKI-1 = test system: CAKI-1
RPMI-8226 = test system: RPMI-8226
LOX IMVI = test system: LOX IMVI
U-251 = test system: U-251
SK-OV-3 = test system: SK-OV-3
SK-MEL-2 = test system: SK-MEL-2
A498 = test system: A498
MOLT-4 = test system: MOLT-4
SF-539 = test system: SF-539
UACC-62 = test system: UACC-62
M14 = test system: M14
OVCAR-4 = test system: OVCAR-4
HOP-62 = test system: HOP-62
OVCAR-5 = test system: OVCAR-5
SNB-75 = test system: SNB-75
RXF 393 = test system: RXF 393
DU-145 = test system: DU-145
NCI/ADR-RES = test system: NCI/ADR-RES
CCRF-CEM = test system: CCRF-CEM
NCI-H23 = test system: NCI-H23
MDA-MB-435 = test system: MDA-MB-435
SF-268 = test system: SF-268
SK-MEL-28 = test system: SK-MEL-28
KM12 = test system: KM12
HCT-116 = test system: HCT-116
TK-10 = test system: TK-10
MDA-N = test system: MDA-N
HCC 2998 = test system: HCC 2998
PC-3 = test system: PC-3

COC1OC(Cc2nnc(C)o2)C(OCc2ccccc2)C(OCc2ccccc2)C1OCc1ccccc1 (stereo not given)
GI50 (IGROV-1): 13.9 µM (inactive) | GI50 (T47D): 52.5 µM (inactive) | GI50 (HT-29): 26.4 µM (inactive) | GI50 (A549): 27.2 µM (inactive) | GI50 (HOP-92): 35.3 µM (inactive) | GI50 (Malme-3M): 15.5 µM (inactive) | GI50 (Hs-578T): 43 µM (inactive) | GI50 (786-0): 40.6 µM (inactive) | GI50 (K562): 20.9 µM (inactive) | GI50 (SN12C): 28.3 µM (inactive) | GI50 (UACC-257): 17.2 µM (inactive) | GI50 (NCI-H460): 26.4 µM (inactive) | GI50 (SF-295): 18.9 µM (inactive) | GI50 (HCT-15): 35.9 µM | GI50 (NCI-H226): 29.5 µM (inactive) | GI50 (NCI-H522): 19.4 µM (inactive) | GI50 (HL-60): 26.2 µM (inactive) | GI50 (OVCAR-3): 18.3 µM (inactive) | GI50 (SK-MEL-5): 16.3 µM (inactive) | GI50 (BT-549): 25.7 µM (inactive) | GI50 (SR): 13.2 µM (inactive) | GI50 (SW-620): 40.1 µM (inactive) | GI50 (ACHN): 26.6 µM (inactive) | GI50 (MDA-MB-231): 36.1 µM (inactive) | GI50 (EKVX): 12.7 µM (inactive) | GI50 (SNB-19): 57.8 µM (inactive) | GI50 (MCF7): 20.3 µM (inactive) | GI50 (UO-31): 33.1 µM (inactive) | GI50 (COLO 205): 20.7 µM (inactive) | GI50 (CAKI-1): 35.6 µM (inactive) | GI50 (RPMI-8226): 32.4 µM (inactive) | GI50 (LOX IMVI): 20.1 µM (inactive) | GI50 (U-251): 38.4 µM (inactive) | GI50 (SK-OV-3): 77.4 µM (inactive) | GI50 (SK-MEL-2): 14.5 µM (inactive) | GI50 (A498): 50.9 µM (inactive) | GI50 (MOLT-4): 16 µM (inactive) | GI50 (SF-539): 38.3 µM (inactive) | GI50 (UACC-62): 17 µM (inactive) | GI50 (M14): 31 µM (inactive) | GI50 (OVCAR-4): 41.4 µM (inactive) | GI50 (HOP-62): 52.1 µM (inactive) | GI50 (OVCAR-5): 41.2 µM (inactive) | GI50 (SNB-75): 74.3 µM (inactive) | GI50 (RXF 393): 18.3 µM (inactive) | GI50 (DU-145): 40.8 µM (inactive) | GI50 (NCI/ADR-RES): 24.3 µM (inactive) | GI50 (CCRF-CEM): 21.7 µM (inactive) | GI50 (NCI-H23): 19.9 µM (inactive) | GI50 (MDA-MB-435): 19.7 µM (inactive) | GI50 (SF-268): 21.5 µM (inactive) | GI50 (SK-MEL-28): 22.9 µM (inactive) | GI50 (KM12): 15.8 µM (inactive) | GI50 (HCT-116): 37.4 µM (inactive)

C=C(Cl)C(C)(Cl)CCC(Br)C(C)(C)Cl (stereo not given)
GI50 (TK-10): > 100 µM (inactive) | GI50 (IGROV-1): 28.8 µM (inactive) | GI50 (HT-29): 15.8 µM (inactive) | GI50 (MDA-N): 15.8 µM (inactive) | GI50 (A549): 29.9 µM (inactive) | GI50 (HOP-92): 18.8 µM (inactive) | GI50 (Malme-3M): 17.1 µM (inactive) | GI50 (Hs-578T): 21.2 µM (inactive) | GI50 (786-0): 17.5 µM (inactive) | GI50 (HCC 2998): 19.5 µM (inactive) | GI50 (K562): 33.9 µM (inactive) | GI50 (SN12C): 16.7 µM (inactive) | GI50 (UACC-257): 15.9 µM (inactive) | GI50 (NCI-H460): 26 µM (inactive) | GI50 (SF-295): 29.1 µM (inactive) | GI50 (NCI-H226): 41.8 µM (inactive) | GI50 (NCI-H522): 11.2 µM (inactive) | GI50 (HL-60): 37.1 µM (inactive) | GI50 (OVCAR-3): 18.2 µM (inactive) | GI50 (SK-MEL-5): 16.9 µM (inactive) | GI50 (BT-549): 20.6 µM (inactive) | GI50 (SR): 21.9 µM (inactive) | GI50 (SW-620): 16.9 µM (inactive) | GI50 (ACHN): 17.5 µM (inactive) | GI50 (MDA-MB-231): 15.2 µM (inactive) | GI50 (EKVX): 47.2 µM (inactive) | GI50 (SNB-19): 51.5 µM (inactive) | GI50 (MCF7): 16.6 µM (inactive) | GI50 (UO-31): 15.4 µM (inactive) | GI50 (COLO 205): 17.3 µM (inactive) | GI50 (CAKI-1): 25.4 µM (inactive) | GI50 (RPMI-8226): 13.2 µM (inactive) | GI50 (LOX IMVI): 13.3 µM (inactive) | GI50 (U-251): 15.9 µM (inactive) | GI50 (SK-OV-3): 12.7 µM (inactive) | GI50 (SK-MEL-2): 19.3 µM (inactive) | GI50 (A498): 41.5 µM (inactive) | GI50 (MOLT-4): 28.4 µM (inactive) | GI50 (PC-3): 25.6 µM (inactive) | GI50 (SF-539): 27.8 µM (inactive) | GI50 (UACC-62): 14.9 µM (inactive) | GI50 (M14): 20 µM (inactive) | GI50 (OVCAR-4): 16.2 µM (inactive) | GI50 (HOP-62): 22 µM (inactive) | GI50 (OVCAR-5): 21.5 µM (inactive) | GI50 (SNB-75): 12.3 µM (inactive) | GI50 (RXF 393): 13.9 µM (inactive) | GI50 (DU-145): 20.9 µM (inactive) | GI50 (NCI/ADR-RES): 29.4 µM (inactive) | GI50 (CCRF-CEM): 19.4 µM (inactive) | GI50 (NCI-H23): 19.1 µM (inactive) | GI50 (MDA-MB-435): 19.4 µM (inactive) | GI50 (SF-268): 33.2 µM (inactive) | GI50 (SK-MEL-28): 21.2 µM (inactive) | GI50 (KM12): 21.9 µM (inactive) | GI50 (HCT-116): 15.2 µM (inactive)
